Reference: patent publication US12643893B2, “Heteroaryl-pyridinium compound and redox flow battery comprising the same” (Korea Advanced Institute of Science and Technology, priority 2021, dated 2026)
Where two headings read alike, the source gives them in different places.

Tests used:
[1] = Cyclic voltammetry (CV) in three-electrode cells; format: physicochemical; conditions: for Formal potential (E^o′): CV, 4 mM in 0.1 M TBATFSI/MeCN
Experimental: All electrochemical examinations were carried out using a Biologic VMP3 electrochemical workstation in an Ar-filled glove box (MOTek, negligible O2 and H2O, tested by the ketyl solution).
Cyclic voltammetry (CV) was conducted in three-electrode cells comprised of glassy carbon (GC; diameter (d)=3 mm) as the working electrode (WE), a platinum wire as the counter electrode (CE), and a leak-free Ag/AgCl as the reference electrode (RE). The GC electrodes were polished using alumina slurry before testing (ALS Co., Ltd).
After CV analysis, ferrocene (Fc, ferrocene, 98%, Sigma-Aldrich) was added to the cell to measure its redox potential, and the measured sample potential was converted to the Fc/Fc^+.

[2] = Radical stability, UV-Vis time-dependent concentration decay; format: physicochemical; conditions: for time-dependent concentration decay of the radical: in 0.5 M TBATFSI/MeCN
Source text: FIG. 10—Radical stability of TMAP-BTP^·+ and BTP^·. (a-b) UV-Vis spectra of (a) TMAP-BTP^·+ and (b) BTP^· in 0.5 M TBATFSI/MeCN. (c-d) Calculated time-dependent concentration decay of (c) TMAP-BTP^·+ (0.22%/day) and (d) BTP (0.63%/day). Better stability of TMAP-BTP^·+ than BTP^· is presumably attributed to the cationic TMAP groups, which repel the redox molecules and prevent chemical reactions.

[3] = expected from the permeability
[4] = Electron-transfer rate from CV curves (Nicholson method); format: physicochemical; conditions: 0.1 M TBATFSI/MeCN
Experimental: The electron-transfer rate (k^0) was calculated from CV curves and using the Nicholson method(equation S2).
where k^o is the electron-transfer constant (cm/s), D is the diffusion coefficient estimated from the above RDE studies, R is the gas constant (8.314 J K^−1 mol^−1), T is the temperature (298 K), v is the scan rate of the CVs (mV s^−1).
The Ψ value was obtained by Kingler and Kochi relation (equation S3).
where ΔEp is the peak-to-peak potential for the corresponding reduction or oxidation event.

[5] = Rotating disk electrode LSV, diffusion coefficient (Levich equation); format: physicochemical; conditions: 0.1 M TBATFSI/MeCN
Experimental: To measure diffusion coefficient (D), rotating disk electrode (RDE; ALS Co., Ltd) measurements were conducted with the same three-electrode cells. […] Limited mass-transport provides a current plateau (iL) of redox processes, which is linearly proportional to the square root of the rotating rates (ω^1/2). The diffusion coefficient (D) was calculated by plotting IL as a function of ω^1/2 and through the Levich equation (equation S1). iL=0.620nFAD^2/3ω^1/2η^−1/6Co (equation S1)
where IL is the limiting current (A cm^−2), n is the number of electrons transferred during the redox reaction, F is the Faraday's constant (96485 C mol^−1), A is the area of the electrode (0.0707 cm^2), D is the diffusion coefficient (cm^2 […]), ω is the angular rotation rate (rad s^−1), η is the kinematic viscosity (0.00442 cm^2 s^−1, referred to 0.1 M TBAPF6/MeCN), and Co is the concentration of the sample chemical.

| Formal potential (E^o′) ([1]; first redox event (single event for BTMAP-Fc)) [V vs. Fc/Fc^+] | peak-to-peak potential difference (ΔEp) ([1]; maintained for 100 CV cycles) [mV] | anodic-to-cathodic peak current ratio (Ipa/Ipc) ([1]; preserved during 100 CV cycles) | Formal potential (E^o′) ([1]; second redox event) [V vs. Fc/Fc^+] | time the reduced form remained stable in the electrolyte solution ([2]; electrolyte solution) [days] | time-dependent concentration decay of the radical [2] [%/day] | time required for 10% decay associated with the crossover [3] [year] | time required for 10% decay associated with the crossover ([3]; listed as TMAP-BTP^·+) [year] | electron-transfer constant (k^o) [4] [cm/s] | diffusion coefficient (D) [5] | cyclability in the CV profile ([1]; 100 CV cycles, FIGS. 6 and 7) | time required for 10% decay associated with the crossover ([3]; listed as BTP^·) [year] | SMILES |
| --- | --- | --- | --- | --- | --- | --- | --- | --- | --- | --- | --- | --- |
| −1.19 | 105 | close to unity | −1.87 | 4 | 0.22 | 0.37 | 0.094 | ~0.1 | 1.91×10^−6 cm^2 s^−1 | – | – | C[N+](C)(C)CCC[n+]1ccc(-c2nc3ccccc3s2)cc1 [TMAP-BTP^2+] |
| – | – | – | – | – | 0.63 | 0.047 | – | – | – | excellent cyclability | 0.0065 | C[n+]1ccc(-c2nc3ccccc3s2)cc1 [BTP^+] |
